Here are results for one molecule from PMC11554305, “Functional identification of soluble uric acid as an endogenous inhibitor of CD38” (eLife, 2024).

Structures are written as SMILES.

For one data set, the system named is A549 cells. Briefly: Intracellular NAD+ assay in A549 cells. The class given is cell-based, human. To be noted: sUA 100 to 500 μM, 20 hr. As for the experimental part:
A549 cells were seeded in 24-well plates for NAD^+ assay. Briefly, when the confluence reached 80%, the culture medium in each well was discarded, and the cells were washed twice with sterile PBS and incubated in RPMI-1640 medium containing 1% FBS in the presence or absence of sUA (from 100 to 500 μM) for 20 hr. Then, the cells were washed twice with sterile PBS, after the second washing, PBS was completely removed and 100 μL 5% ice-cold perchloric acid (PCA) was added into each well. The plate was kept on ice for 2 hr, then cell samples were collected and centrifuged at 15,000 rpm, 4°C for 10 min. The supernatant was used for subsequent handling and measurement (see LC-MS/MS analysis).
(§1) As mentioned above, samples (cells, tissues, blood, or reaction buffer) were treated with ice-cold PCA, after extraction and centrifugation, the collected supernatant was appropriately diluted in 5% ice-cold PCA when applicable, and then was vortexed for 30 s and centrifuged at 15,000 rpm, 4°C for 5 min. […] All the samples after handling were immediately analyzed in this study without freezing and thawing.
(§2) The LC-MS/MS system consisted of a triple quadrupole LCMS-8050 (Shimadzu) and an LC-30A system (Shimadzu). […] NAD^+ and NMN were measured independently in this study, as their peaks were hardly separated within a short time.

The test system of another data set is primed WT BMDMs. Briefly: sUA uptake assay in primed WT BMDMs. The class given is cell-based, mouse. Conditions: sUA 100, 200 or 500 μM, 2 or 15 hr. The procedure: WT BMDMs were primed with 100 ng/mL ultrapure LPS for 4 hr. Then, the cells were washed twice with sterile PBS, and maintained in RPMI-1640 medium containing sUA (100, 200, or 500 μM) for 2 or 15 hr. Subsequently, the cells were washed twice with ice-cold sterile PBS to terminate uptake, 100 μL 5% ice-cold PCA was added into each well. The plates were placed on ice for 2 hr, then cell samples were collected and centrifuged at 15,000 rpm, 4°C for 10 min. The supernatant was used for subsequent handling and measurement (see LC-MS/MS analysis).

In another data set the test system is neutrophils. More on the design: method as in Ma et al., 2022. Conditions: sUA 595 μM; ref Ma et al., 2022; cited from earlier work.
Data set [1] deals with bone marrow-derived macrophages (BMDMs). Briefly: Extracellular NMN degradation in primed BMDMs. It counts as cell-based, mouse. To be noted: WT BMDMs, not in CD38 KO BMDMs; NMN 100 μM, 6 hr. The procedure: Bone marrow cells were isolated from 10- to 12-week-old WT or CD38 KO mice (both male and female) by washing the marrow cavity with sterile PBS. The collected bone marrow cells were filtered by 70 μm strainers and then centrifuged at 1000 rpm, 4°C for 5 min. The cell pellet was resuspended in 2 mL red blood cell (RBC) lysis buffer for 30 s, then 8 mL complete RPMI-1640 medium (10% FBS, 1% penicillin/streptomycin, and 50 μM 2-mercaptoethanol) was added to terminate the lysis. After 5 min centrifugation at 1000 rpm, 4°C, the cells were resuspended in fresh complete RPMI-1640 medium and maintained for 4 hr in an incubator. Adherent cells were discarded, whereas non-adherent cells were cultured in complete RPMI-1640 medium containing 20 ng/mL M-CSF. After 3-day differentiation, the medium was replaced with fresh complete RPMI-1640 medium containing 20 ng/mL M-CSF. On the 7th day, BMDMs were collected for subsequent experiments. BMDMs were primed with 100 ng/mL ultrapure LPS for 4 hr for canonical inflammasome assay. For metabolic assay of NMN, BMDMs were primed with 100 ng/mL ultrapure LPS for 8 hr to induce higher protein expression of CD38.
WT and CD38 KO BMDMs were primed with 100 ng/mL ultrapure LPS for 8 hr, then the cells were washed twice with sterile PBS. Primed BMDMs were maintained in RPMI-1640 medium supplemented with 100 μM NMN in the presence or absence of sUA. […]

The target in another data set is T1, recombinant hCD38 (Homo sapiens, UniProt P28907).
T1 construct: the commercial recombinant hCD38 without a transmembrane region was partially used in this study; purchased Sino Biological 10818-H08H
T1 sequence (P28907 43-300 limits assumed): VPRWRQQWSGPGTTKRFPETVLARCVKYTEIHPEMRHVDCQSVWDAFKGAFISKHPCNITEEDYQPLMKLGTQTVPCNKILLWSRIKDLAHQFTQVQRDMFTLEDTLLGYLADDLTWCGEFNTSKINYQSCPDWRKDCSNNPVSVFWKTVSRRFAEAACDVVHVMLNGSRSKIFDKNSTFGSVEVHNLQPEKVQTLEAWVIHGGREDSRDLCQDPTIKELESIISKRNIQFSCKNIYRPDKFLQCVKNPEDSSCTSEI
The experiment in a line: Metabolic assay of NMN (degradation by recombinant hCD38). It counts as biochemical. Conditions: NMN 200 μM, hCD38 20 ng/mL, 6 hr. As for the experimental part:
To prepare the reaction buffer, sUA was directly dissolved in blank RPMI-1640 medium by addition of NaOH, and the pH was immediately adjusted by HCl. After pH adjustment, the medium containing sUA was filtered by 0.2 μm filter and diluted as indicated. The medium containing 20 ng/mL recombinant hCD38 was then placed in a cell incubator. The reaction was started with the addition of NMN (final concentration was 200 μM). After incubation for 6 hr, 20 μL medium was transferred into 180 μL 5% ice-cold PCA, then vortexed for 30 s and centrifuged at 15,000 rpm, 4°C for 10 min. The supernatant was stored at –80°C until further handling for NMN measurement (see LC-MS/MS analysis).
as §1, §2

As for `O=c1[nH]c(=O)c2[nH]c(=O)[nH]c2[nH]1` [sUA, uric acid], in the data set with A549 cells, the “Intracellular NAD+” value is listed as “boosted intracellular NAD^+”. In addition, the sUA uptake result with primed WT BMDMs is given as “very low”. Besides, the “Neutrophil response to IL-8” value in the data set with neutrophils is reported as “inhibits neutrophils in response to IL-8”. The “Extracellular NMN availability” value in data set [1] was “increased extracellular NMN availability”. Moreover, the “NMN degradation by recombinant hCD38” value on recombinant hCD38 is given as “directly inhibited NMN degradation”.
